molecular target: T1, BRD4 bromodomains (Homo sapiens, UniProt O60885); assay: BROMOscan bromodomain competition binding assay (DiscoveRx); conditions: Kd from 11 compound concentrations ranging from 0 to 10 μM, read-out: BROMOscan Relative Activity
T1 construct: fused on or other part: T7 phage capsid protein (phage-display fusion; the phage DNA is read out by qPCR)
Method in brief: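 Compounds in 0.1% DMSO/0.9% MEG competed with a solid-phase acetylated peptide for T7 phage-fused BRD4 bromodomains, with the retained bromodomain measured by qPCR.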

SMILES	Kd
Cn1cc(-c2ccc3nc(N4CCN(CCO)CC4)nc(NCc4cncc(Cl)c4)c3c2)ccc1=O [Example 126, 5-(4-(((5-chloropyridin-3-yl)methyl)amino)-2-(4-(2-hydroxyethyl)piperazin-1-yl)quinazolin-6-yl)-1-methylpyridin-2(1H)-one]	< 500 nM
Cn1cc(-c2ccc3nc(N4CCN(CC(N)=O)CC4)nc(NCc4cncc(Cl)c4)c3c2)ccc1=O [Example 127, 2-(4-(4-(((5-chloropyridin-3-yl)methyl)amino)-6-(1-methyl-6-oxo-1,6-dihydropyridin-3-yl)quinazolin-2-yl)piperazin-1-yl)acetamide]	< 500 nM
CNC(=O)CN1CCN(c2nc(NCc3cncc(Cl)c3)c3cc(-c4ccc(=O)n(C)c4)ccc3n2)CC1 [Example 128, 2-(4-(4-(((5-chloropyridin-3-yl)methyl)amino)-6-(1-methyl-6-oxo-1,6-dihydropyridin-3-yl)quinazolin-2-yl)piperazin-1-yl)-N-methylacetamide]	< 500 nM
CN(C)C(=O)CN1CCN(c2nc(NCc3cncc(Cl)c3)c3cc(-c4ccc(=O)n(C)c4)ccc3n2)CC1 [Example 129, 2-(4-(4-(((5-chloropyridin-3-yl)methyl)amino)-6-(1-methyl-6-oxo-1,6-dihydropyridin-3-yl)quinazolin-2-yl)piperazin-1-yl)-N,N-dimethylacetamide]	< 500 nM
Cc1noc(C)c1-c1ccc2nc(N3CCN(CCCN(C)C)CC3)nc(NCc3cncc(Cl)c3)c2c1 [Example 130, N-((5-chloropyridin-3-yl)methyl)-2-(4-(3-(dimethylamino)propyl)piperazin-1-yl)-6-(3,5-dimethylisoxazol-4-yl)quinazolin-4-amine]	< 500 nM
Cc1noc(C)c1-c1ccc2nc(N3CCN(C(=O)CN)CC3)nc(NCc3cncc(Cl)c3)c2c1 [Example 131, 2-amino-1-(4-(4-(((5-chloropyridin-3-yl)methyl)amino)-6-(3,5-dimethylisoxazol-4-yl)quinazolin-2-yl)piperazin-1-yl)ethanone]	< 500 nM
Cc1noc(C)c1-c1ccc2nc(N3CCN(C(=O)CO)CC3)nc(NCc3cncc(Cl)c3)c2c1 [Example 132, 1-(4-(4-(((5-chloropyridin-3-yl)methyl)amino)-6-(3,5-dimethylisoxazol-4-yl)quinazolin-2-yl)piperazin-1-yl)-2-hydroxyethanone]	< 500 nM
Cn1cc(-c2ccc3nc(N4CCN(C(=O)CN)CC4)nc(NCc4cncc(Cl)c4)c3c2)ccc1=O [Example 133, 5-(2-(4-(2-aminoacetyl)piperazin-1-yl)-4-(((5-chloropyridin-3-yl)methyl)amino)quinazolin-6-yl)-1-methylpyridin-2(1H)-one]	< 500 nM
Cn1cc(-c2ccc3nc(N4CCN(CC(C)(C)O)CC4)nc(NCc4cccc(Cl)c4)c3c2)ccc1=O [Example 134, 5-(4-((3-chlorobenzyl)amino)-2-(4-(2-hydroxy-2-methylpropyl)piperazin-1-yl)quinazolin-6-yl)-1-methylpyridin-2(1H)-one]	< 500 nM
Cn1cc(-c2ccc3nc(N4CCN(CC(C)(C)O)CC4)nc(NCc4cncc(Cl)c4)c3c2)ccc1=O [Example 135, 5-(4-(((5-chloropyridin-3-yl)methyl)amino)-2-(4-(2-hydroxy-2-methylpropyl)piperazin-1-yl)quinazolin-6-yl)-1-methylpyridin-2(1H)-one]	< 500 nM
Cc1noc(C)c1-c1ccc2nc(N3CCN(CC(C)(C)O)CC3)nc(NCc3cncc(Cl)c3)c2c1 [Example 136, 1-(4-(4-(((5-chloropyridin-3-yl)methyl)amino)-6-(3,5-dimethylisoxazol-4-yl)quinazolin-2-yl)piperazin-1-yl)-2-methylpropan-2-ol]	< 500 nM
Cc1noc(C)c1-c1ccc2nc(N3CCN(CC(C)(C)O)CC3)nc(NCc3cccc(Cl)c3)c2c1 [Example 137, 1-(4-(4-((3-chlorobenzyl)amino)-6-(3,5-dimethylisoxazol-4-yl)quinazolin-2-yl)piperazin-1-yl)-2-methylpropan-2-ol]	500 to 5000 nM
Cc1noc(C)c1-c1ccc2nc(-c3cnn(C(C)(C)CO)c3)nc(NCc3cncc(Cl)c3)c2c1 [Example 138, 2-(4-(4-(((5-chloropyridin-3-yl)methyl)amino)-6-(3,5-dimethylisoxazol-4-yl)quinazolin-2-yl)-1H-pyrazol-1-yl)-2-methylpropan-1-ol]	< 500 nM
Cc1noc(C)c1-c1ccc2nc(-c3cnn(CC(C)(C)O)c3)nc(NCc3cncc(Cl)c3)c2c1 [Example 139, 1-(4-(4-(((5-chloropyridin-3-yl)methyl)amino)-6-(3,5-dimethylisoxazol-4-yl)quinazolin-2-yl)-1H-pyrazol-1-yl)-2-methylpropan-2-ol]	< 500 nM
Cc1noc(C)c1-c1ccc2nc(-c3cnn(CC(=O)N(C)C)c3)nc(NCc3cncc(Cl)c3)c2c1 [Example 140, 2-(4-(4-(((5-chloropyridin-3-yl)methyl)amino)-6-(3,5-dimethylisoxazol-4-yl)quinazolin-2-yl)-1H-pyrazol-1-yl)-N,N-dimethylacetamide]	< 500 nM
CNC(=O)Cn1cc(-c2nc(NCc3cncc(Cl)c3)c3cc(-c4c(C)noc4C)ccc3n2)cn1 [Example 141, 2-(4-(4-(((5-chloropyridin-3-yl)methyl)amino)-6-(3,5-dimethylisoxazol-4-yl)quinazolin-2-yl)-1H-pyrazol-1-yl)-N-methylacetamide]	< 500 nM

SMILES	Kd
Cc1noc(C)c1-c1ccc2nc(-c3cnn(CC(N)=O)c3)nc(NCc3cncc(Cl)c3)c2c1 [Example 142, 2-(4-(4-(((5-chloropyridin-3-yl)methyl)amino)-6-(3,5-dimethylisoxazol-4-yl)quinazolin-2-yl)-1H-pyrazol-1-yl)acetamide]	< 500 nM
Cn1cc(-c2ccc3nc(-c4cnn(CCO)c4)nc(NCc4cncc(Cl)c4)c3c2)ccc1=O [Example 143, 5-(4-(((5-chloropyridin-3-yl)methyl)amino)-2-(1-(2-hydroxyethyl)-1H-pyrazol-4-yl)quinazolin-6-yl)-1-methylpyridin-2(1H)-one]	< 500 nM
Cc1noc(C)c1-c1ccc2nc(-c3cnn(CCO)c3)nc(NCc3cncc(Cl)c3)c2c1 [Example 144, 2-(4-(4-(((5-chloropyridin-3-yl)methyl)amino)-6-(3,5-dimethylisoxazol-4-yl)quinazolin-2-yl)-1H-pyrazol-1-yl)ethanol]	< 500 nM
Cn1cc(-c2ccc3nc(-c4cnn(CC(N)=O)c4)nc(NCc4cncc(Cl)c4)c3c2)ccc1=O [Example 145, 2-(4-(4-(((5-chloropyridin-3-yl)methyl)amino)-6-(1-methyl-6-oxo-1,6-dihydropyridin-3-yl)quinazolin-2-yl)-1H-pyrazol-1-yl)acetamide]	500 to 5000 nM
CN(C)C(=O)Cn1cc(-c2nc(NCc3cncc(Cl)c3)c3cc(-c4ccc(=O)n(C)c4)ccc3n2)cn1 [Example 146, 2-(4-(4-(((5-chloropyridin-3-yl)methyl)amino)-6-(1-methyl-6-oxo-1,6-dihydropyridin-3-yl)quinazolin-2-yl)-1H-pyrazol-1-yl)-N,N-dimethylacetamide]	< 500 nM
CNC(=O)Cn1cc(-c2nc(NCc3cncc(Cl)c3)c3cc(-c4ccc(=O)n(C)c4)ccc3n2)cn1 [Example 147, 2-(4-(4-(((5-chloropyridin-3-yl)methyl)amino)-6-(1-methyl-6-oxo-1,6-dihydropyridin-3-yl)quinazolin-2-yl)-1H-pyrazol-1-yl)-N-methylacetamide]	< 500 nM
Cn1cc(-c2ccc3nc(-c4cnn(CC(C)(C)O)c4)nc(NCc4cncc(Cl)c4)c3c2)ccc1=O [Example 148, 5-(4-(((5-chloropyridin-3-yl)methyl)amino)-2-(1-(2-hydroxy-2-methylpropyl)-1H-pyrazol-4-yl)quinazolin-6-yl)-1-methylpyridin-2(1H)-one]	500 to 5000 nM
Cn1cc(-c2ccc3nc(-c4cnn(C(C)(C)CO)c4)nc(NCc4cncc(Cl)c4)c3c2)ccc1=O [Example 149, 5-(4-(((5-chloropyridin-3-yl)methyl)amino)-2-(1-(1-hydroxy-2-methylpropan-2-yl)-1H-pyrazol-4-yl)quinazolin-6-yl)-1-methylpyridin-2(1H)-one]	< 500 nM
Cc1noc(C)c1-c1ccc2nc(-c3cnn(CCO)c3)nc(Nc3ccc(Cl)cc3)c2c1 [Example 150, 2-(4-(4-((4-chlorophenyl)amino)-6-(3,5-dimethylisoxazol-4-yl)quinazolin-2-yl)-1H-pyrazol-1-yl)ethanol]	500 to 5000 nM
Cc1noc(C)c1-c1ccc2nc(Cl)nc(Nc3ccc(Cl)cc3)c2c1 [Example 151, 2-chloro-N-(4-chlorophenyl)-6-(3,5-dimethylisoxazol-4-yl)quinazolin-4-amine]	> 5000 nM
Cc1noc(C)c1-c1ccc2nc(N3CCN(S(C)(=O)=O)CC3)nc(NCc3cncc(Cl)c3)c2c1 [Example 152, N-((5-chloropyridin-3-yl)methyl)-6-(3,5-dimethylisoxazol-4-yl)-2-(4-(methylsulfonyl)piperazin-1-yl)quinazolin-4-amine]	< 500 nM
Cc1noc(C)c1-c1ccc2nc(N3CCC(S(C)(=O)=O)CC3)nc(NCc3cccc(Cl)c3)c2c1 [Example 153, N-(3-chlorobenzyl)-6-(3,5-dimethylisoxazol-4-yl)-2-(4-(methylsulfonyl)piperidin-1-yl)quinazolin-4-amine]	< 500 nM
Cc1noc(C)c1-c1ccc2nc(N3CCC(S(C)(=O)=O)CC3)nc(NCc3cncc(Cl)c3)c2c1 [Example 154, N-((5-chloropyridin-3-yl)methyl)-6-(3,5-dimethylisoxazol-4-yl)-2-(4-(methylsulfonyl)piperidin-1-yl)quinazolin-4-amine]	< 500 nM
Cc1noc(C)c1-c1ccc2nc(N3CCN(S(C)(=O)=O)CC3)nc(NCc3cccc(Cl)c3)c2c1 [Example 155, N-(3-chlorobenzyl)-6-(3,5-dimethylisoxazol-4-yl)-2-(4-(methylsulfonyl)piperazin-1-yl)quinazolin-4-amine]	< 500 nM
Cc1noc(C)c1-c1ccc2nc(N3CCC(C)(C#N)CC3)nc(NCc3cccc(Cl)c3)c2c1 [Example 156, 1-(4-((3-chlorobenzyl)amino)-6-(3,5-dimethylisoxazol-4-yl)quinazolin-2-yl)-4-methylpiperidine-4-carbonitrile]	500 to 5000 nM
